Source: PMC5999115, “Anti-tumor activity of phenoxybenzamine and its inhibition of histone deacetylases” (PLoS ONE, 2018)

Columns and labels:
HDAC9 = biological target: T1, HDAC9 (Homo sapiens, UniProt Q9UKV0); experiment: Fluorogenic HDAC deacetylase assay (BPS Bioscience); type: biochemical
T1 construct: purchased BPS Bioscience 50009

[1] = system: cultures of 60 human tumors; experiment: NCI60 human tumor culture screen, initial study with DMSO dissolution; type: cell-based; settings: initially dissolved in DMSO
Method: (§1) The results of these studies were included in an application for the screening of PBZ in the National Cancer Institute NCI60 screening program (https://dtp.cancer.gov/discovery_development/nci-60); they measured its effects on growth in cultures of 60 human tumors. This initial screen was conducted at only one drug concentration, 10 μM. We supplied the United States Pharmacopeial reference standard of PBZ-hydrochloride in powder form. The NCI60 standard procedure for dissolution of a synthetic molecule like PBZ involved initial dilution in 9:1 dimethyl sulfoxide (DMSO): glycerol at a concentration of 4 mM; the solution was then diluted 1:200 with complete culture medium (RPMI 1640 medium containing 5% fetal calf serum (FCS), 2 mM L-glutamine and 50 μg/ml gentamicin to give a final concentration of 20 μM; 100 μl of the drug-medium mixture was added to 100 μl of the cell cultures already in complete medium. The microtiter plates were incubated for 48 hr at 37°C, 5% CO2, 95% air, and 100% relative humidity (see S1 Appendix for further details).

[2] = system: implanted tumors (malignant glioma); parameters: method as in PMID 26409450; settings: direct injection into implanted tumors; cited from earlier work
RPMI 8226 = experiment: NCI60 screen, Sulforhodamine B assay; type: cell-based, human; settings: 10 μM phenoxybenzamine
Method: as §1
(§2) The reason for the lack of activity after dissolution in DMSO has not been pursued further, but DMSO was eliminated in all subsequent assay systems.

T47D = experiment: NCI60 screen, Sulforhodamine B assay; type: cell-based, human; settings: 10 μM phenoxybenzamine
Method: as §1, §2

OVCAR-8 = experiment: NCI60 screen, Sulforhodamine B assay; type: cell-based, human; settings: 10 μM phenoxybenzamine
Method: as §1, §2

UACC-257 = experiment: NCI60 screen, Sulforhodamine B assay; type: cell-based, human; settings: 10 μM phenoxybenzamine
Method: as §1, §2

NCI-H522 = experiment: NCI60 screen, Sulforhodamine B assay; type: cell-based, human; settings: 10 μM phenoxybenzamine
Method: as §1, §2

PC-3 = experiment: NCI60 screen, Sulforhodamine B assay; type: cell-based, human; settings: 10 μM phenoxybenzamine
Method: as §1, §2

MAXF T47D = experiment: Oncotest CellTiter-Blue cell viability assay, 72 hours; type: cell-based, human
Method: Further studies with varying drug concentrations on selected human cell lines, in most cases those studied in the NCI60 screen, were conducted by Oncotest GmbH laboratories, Freiburg, Germany; Oncotest is a division of Charles River Laboratories. The dissolution procedure for PBZ and the cell culture […] was 72 hours; anti-tumor activity was determined with the CellTiter-Blue® Cell Viability Assay, Promega, Mannheim, Germany. The 50% Inhibitory (IC50) concentrations were determined. The results are the average of duplicate assays. Paclitaxel was included as a reference compound to confirm the integrity of the assays. See S1 Appendix for further details.
“Cell lines were routinely passaged once or twice weekly and maintained in culture for up to 20 passages. Cells were grown at 37°C in a humidified atmosphere with 5% CO2 in RPMI 1640 medium (25 mM HEPES, with L-glutamine, #FG1385, Biochrom, Berlin, Germany) supplemented with 10% (v/v) fetal calf serum (Sigma, Taufkirchen, Germany) and 0.1 mg/mL gentamicin (Life Technologies, Karlsruhe, Germany).”

HDAC3/NCOR2 = biological target: T2, HDAC3/NCOR2 (Homo sapiens, UniProt O15379); experiment: Fluorogenic HDAC deacetylase assay (BPS Bioscience); type: biochemical
T2 construct: purchased BPS Bioscience 50003
T2 sequence (O15379 whole entry): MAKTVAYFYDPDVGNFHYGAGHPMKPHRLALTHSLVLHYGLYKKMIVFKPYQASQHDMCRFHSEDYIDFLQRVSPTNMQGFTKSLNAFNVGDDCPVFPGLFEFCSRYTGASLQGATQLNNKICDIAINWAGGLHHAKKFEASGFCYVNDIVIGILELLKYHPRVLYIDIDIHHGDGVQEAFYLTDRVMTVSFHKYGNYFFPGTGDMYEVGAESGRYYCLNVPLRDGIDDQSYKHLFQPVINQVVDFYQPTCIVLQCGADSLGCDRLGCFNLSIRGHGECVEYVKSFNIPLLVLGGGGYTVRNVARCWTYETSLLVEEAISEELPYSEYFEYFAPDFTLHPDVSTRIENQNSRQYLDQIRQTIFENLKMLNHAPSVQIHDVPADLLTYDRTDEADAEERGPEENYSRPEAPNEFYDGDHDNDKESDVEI
T2 sequence (Q9Y618 395-489 partner limits assumed): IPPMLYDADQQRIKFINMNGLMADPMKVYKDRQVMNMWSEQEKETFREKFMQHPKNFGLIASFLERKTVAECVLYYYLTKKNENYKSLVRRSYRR

CFA-affected animals = system: CFA-affected animals; parameters: method as in PMID 20846436; settings: cited from earlier work
HDAC2 = biological target: T3, HDAC2 (Homo sapiens, UniProt Q92769); experiment: biochemical; settings: read-out: % inhibition @ 10 uM
T3 construct: purchased BPS Bioscience 50002

[3] = system: pulmonary arterial hypertension in a rat model; parameters: method as in earlier work; settings: daily injections following monocrotaline; after 4 weeks of treatment; cited from earlier work
[4] = Aqueous solubility in the NCI60 assay conditions; type: physicochemical
Source text: as §2

HDAC6 = biological target: T4, HDAC6 (Homo sapiens, UniProt Q9UBN7); experiment: Fluorogenic HDAC deacetylase assay (BPS Bioscience); type: biochemical
T4 construct: purchased BPS Bioscience 50006
T4 sequence (Q9UBN7 whole entry): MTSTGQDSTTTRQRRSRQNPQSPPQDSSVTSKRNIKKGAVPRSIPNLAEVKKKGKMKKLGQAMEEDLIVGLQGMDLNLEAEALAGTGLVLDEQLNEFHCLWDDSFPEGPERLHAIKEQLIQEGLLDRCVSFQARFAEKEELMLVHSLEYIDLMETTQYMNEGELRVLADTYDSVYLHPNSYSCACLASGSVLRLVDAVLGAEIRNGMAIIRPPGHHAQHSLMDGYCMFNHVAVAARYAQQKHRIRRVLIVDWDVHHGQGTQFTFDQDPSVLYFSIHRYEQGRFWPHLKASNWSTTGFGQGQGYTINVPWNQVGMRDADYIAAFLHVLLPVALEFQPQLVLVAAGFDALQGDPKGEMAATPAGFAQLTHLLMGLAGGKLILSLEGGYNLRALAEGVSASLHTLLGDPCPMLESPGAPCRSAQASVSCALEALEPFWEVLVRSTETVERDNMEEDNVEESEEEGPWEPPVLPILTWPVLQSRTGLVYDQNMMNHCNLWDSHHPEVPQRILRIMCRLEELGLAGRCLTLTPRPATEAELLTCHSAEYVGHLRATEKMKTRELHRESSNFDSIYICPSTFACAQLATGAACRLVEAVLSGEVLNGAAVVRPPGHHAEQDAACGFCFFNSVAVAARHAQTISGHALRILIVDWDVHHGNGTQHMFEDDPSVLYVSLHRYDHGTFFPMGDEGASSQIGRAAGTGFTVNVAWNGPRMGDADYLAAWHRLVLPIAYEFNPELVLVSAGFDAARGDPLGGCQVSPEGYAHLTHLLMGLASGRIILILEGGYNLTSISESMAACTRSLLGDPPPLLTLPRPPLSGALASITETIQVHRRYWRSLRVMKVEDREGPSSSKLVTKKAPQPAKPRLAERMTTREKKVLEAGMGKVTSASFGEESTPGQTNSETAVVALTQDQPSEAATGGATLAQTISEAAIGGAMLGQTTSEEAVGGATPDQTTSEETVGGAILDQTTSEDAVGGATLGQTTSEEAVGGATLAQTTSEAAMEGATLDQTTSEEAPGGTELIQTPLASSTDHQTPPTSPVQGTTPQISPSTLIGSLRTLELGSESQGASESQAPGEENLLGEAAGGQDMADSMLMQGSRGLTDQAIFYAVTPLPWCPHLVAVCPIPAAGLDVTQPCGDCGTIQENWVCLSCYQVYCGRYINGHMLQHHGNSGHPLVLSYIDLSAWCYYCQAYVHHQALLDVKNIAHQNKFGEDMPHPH

HDAC4 = biological target: T5, HDAC4 (Homo sapiens, UniProt P56524); experiment: as above; type: biochemical; settings: read-out: % inhibition @ 10 uM
T5 construct: purchased BPS Bioscience 50004
T5 sequence (P56524 627-1084 limits assumed): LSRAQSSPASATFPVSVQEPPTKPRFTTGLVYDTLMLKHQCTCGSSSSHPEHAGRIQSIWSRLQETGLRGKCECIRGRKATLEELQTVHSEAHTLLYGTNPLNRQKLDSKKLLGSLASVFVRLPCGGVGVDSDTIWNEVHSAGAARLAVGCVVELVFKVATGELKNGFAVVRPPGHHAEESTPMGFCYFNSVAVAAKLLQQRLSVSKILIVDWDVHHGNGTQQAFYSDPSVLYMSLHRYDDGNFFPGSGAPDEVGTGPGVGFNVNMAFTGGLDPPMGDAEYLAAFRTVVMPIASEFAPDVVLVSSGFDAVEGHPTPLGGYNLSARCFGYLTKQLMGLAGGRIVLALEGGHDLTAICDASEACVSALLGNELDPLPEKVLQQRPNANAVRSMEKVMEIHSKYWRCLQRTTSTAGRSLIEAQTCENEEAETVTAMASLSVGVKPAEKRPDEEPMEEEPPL

HDAC1 = biological target: T6, HDAC1 (Homo sapiens, UniProt Q13547); experiment: as above; type: biochemical; settings: read-out: % inhibition @ 10 uM
T6 construct: purchased BPS Bioscience 50051
T6 sequence (Q13547 whole entry): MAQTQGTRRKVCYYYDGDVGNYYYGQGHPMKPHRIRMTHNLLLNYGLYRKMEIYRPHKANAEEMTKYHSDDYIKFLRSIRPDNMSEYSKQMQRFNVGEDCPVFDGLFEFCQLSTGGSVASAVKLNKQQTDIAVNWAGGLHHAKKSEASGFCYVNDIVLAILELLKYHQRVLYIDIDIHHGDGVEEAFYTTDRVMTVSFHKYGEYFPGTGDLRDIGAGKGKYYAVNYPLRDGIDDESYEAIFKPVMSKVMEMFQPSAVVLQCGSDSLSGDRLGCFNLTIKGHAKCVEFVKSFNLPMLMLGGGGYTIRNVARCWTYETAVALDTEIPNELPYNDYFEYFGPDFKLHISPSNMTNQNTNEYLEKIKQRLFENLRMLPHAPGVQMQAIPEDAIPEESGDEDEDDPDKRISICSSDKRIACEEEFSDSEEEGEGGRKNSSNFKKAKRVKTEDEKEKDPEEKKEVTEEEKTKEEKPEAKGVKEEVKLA

HDAC5 = biological target: T7, HDAC5 (Homo sapiens, UniProt Q9UQL6); experiment: as above; type: biochemical
T7 construct: purchased BPS Bioscience 50005
T7 sequence (Q9UQL6 656-1122 limits assumed): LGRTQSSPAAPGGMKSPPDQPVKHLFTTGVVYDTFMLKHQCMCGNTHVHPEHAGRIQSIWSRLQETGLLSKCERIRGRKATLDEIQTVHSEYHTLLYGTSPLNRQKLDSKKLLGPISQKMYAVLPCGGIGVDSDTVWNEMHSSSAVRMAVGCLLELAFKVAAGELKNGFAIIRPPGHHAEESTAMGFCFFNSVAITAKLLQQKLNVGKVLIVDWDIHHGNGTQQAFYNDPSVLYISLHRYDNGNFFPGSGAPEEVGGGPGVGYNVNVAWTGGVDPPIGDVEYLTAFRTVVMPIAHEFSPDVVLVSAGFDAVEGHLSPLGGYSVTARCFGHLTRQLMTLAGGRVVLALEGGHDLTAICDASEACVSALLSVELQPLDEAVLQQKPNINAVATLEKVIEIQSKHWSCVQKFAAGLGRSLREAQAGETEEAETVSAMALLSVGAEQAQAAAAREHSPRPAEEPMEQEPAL

HDAC7 = biological target: T8, HDAC7 (Homo sapiens, UniProt Q8WUI4); experiment: as above; type: biochemical
T8 construct: purchased BPS Bioscience 50007
T8 sequence (Q8WUI4 518-952 limits assumed): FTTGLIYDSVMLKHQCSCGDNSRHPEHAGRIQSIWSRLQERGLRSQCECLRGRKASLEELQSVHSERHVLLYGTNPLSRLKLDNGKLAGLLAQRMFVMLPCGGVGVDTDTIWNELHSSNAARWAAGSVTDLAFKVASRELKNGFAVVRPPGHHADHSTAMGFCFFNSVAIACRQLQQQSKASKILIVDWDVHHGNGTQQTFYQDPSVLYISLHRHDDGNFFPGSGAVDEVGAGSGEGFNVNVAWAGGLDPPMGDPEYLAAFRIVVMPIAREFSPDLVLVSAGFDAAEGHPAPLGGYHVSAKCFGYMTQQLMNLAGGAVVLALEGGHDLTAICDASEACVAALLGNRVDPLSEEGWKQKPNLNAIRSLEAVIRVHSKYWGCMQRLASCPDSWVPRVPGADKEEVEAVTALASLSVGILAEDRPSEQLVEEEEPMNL

HDAC11 = biological target: T9, HDAC11 (Homo sapiens, UniProt Q96DB2); experiment: as above; type: biochemical; settings: read-out: % inhibition @ 10 uM
T9 construct: purchased BPS Bioscience 50011
T9 sequence (Q96DB2 whole entry): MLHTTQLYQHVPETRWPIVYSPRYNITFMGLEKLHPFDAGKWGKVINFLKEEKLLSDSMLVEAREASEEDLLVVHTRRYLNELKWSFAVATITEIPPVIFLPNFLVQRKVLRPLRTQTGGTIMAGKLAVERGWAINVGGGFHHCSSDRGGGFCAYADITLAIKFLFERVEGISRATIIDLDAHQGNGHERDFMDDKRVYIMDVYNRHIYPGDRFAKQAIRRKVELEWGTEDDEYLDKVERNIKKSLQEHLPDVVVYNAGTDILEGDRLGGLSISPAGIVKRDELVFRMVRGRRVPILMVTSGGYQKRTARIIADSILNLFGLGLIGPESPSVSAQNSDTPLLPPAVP

HDAC8 = biological target: T10, HDAC8 (Homo sapiens, UniProt Q9BY41); experiment: as above; type: biochemical
T10 construct: purchased BPS Bioscience 50008
T10 sequence (Q9BY41 whole entry): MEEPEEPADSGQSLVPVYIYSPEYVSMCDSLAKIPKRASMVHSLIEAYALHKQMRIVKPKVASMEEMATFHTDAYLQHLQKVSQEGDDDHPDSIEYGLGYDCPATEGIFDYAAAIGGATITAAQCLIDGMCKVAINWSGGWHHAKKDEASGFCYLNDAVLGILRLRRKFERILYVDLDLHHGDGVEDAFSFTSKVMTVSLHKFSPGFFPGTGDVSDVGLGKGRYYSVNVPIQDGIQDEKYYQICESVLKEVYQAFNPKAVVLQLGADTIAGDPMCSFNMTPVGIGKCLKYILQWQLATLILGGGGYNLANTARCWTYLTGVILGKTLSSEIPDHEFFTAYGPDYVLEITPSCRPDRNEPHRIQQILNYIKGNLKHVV

HDAC10 = biological target: T11, HDAC10 (Homo sapiens, UniProt Q969S8); experiment: as above; type: biochemical; settings: read-out: % inhibition @ 10 uM
T11 construct: purchased BPS Bioscience 50060
T11 sequence (Q969S8 whole entry): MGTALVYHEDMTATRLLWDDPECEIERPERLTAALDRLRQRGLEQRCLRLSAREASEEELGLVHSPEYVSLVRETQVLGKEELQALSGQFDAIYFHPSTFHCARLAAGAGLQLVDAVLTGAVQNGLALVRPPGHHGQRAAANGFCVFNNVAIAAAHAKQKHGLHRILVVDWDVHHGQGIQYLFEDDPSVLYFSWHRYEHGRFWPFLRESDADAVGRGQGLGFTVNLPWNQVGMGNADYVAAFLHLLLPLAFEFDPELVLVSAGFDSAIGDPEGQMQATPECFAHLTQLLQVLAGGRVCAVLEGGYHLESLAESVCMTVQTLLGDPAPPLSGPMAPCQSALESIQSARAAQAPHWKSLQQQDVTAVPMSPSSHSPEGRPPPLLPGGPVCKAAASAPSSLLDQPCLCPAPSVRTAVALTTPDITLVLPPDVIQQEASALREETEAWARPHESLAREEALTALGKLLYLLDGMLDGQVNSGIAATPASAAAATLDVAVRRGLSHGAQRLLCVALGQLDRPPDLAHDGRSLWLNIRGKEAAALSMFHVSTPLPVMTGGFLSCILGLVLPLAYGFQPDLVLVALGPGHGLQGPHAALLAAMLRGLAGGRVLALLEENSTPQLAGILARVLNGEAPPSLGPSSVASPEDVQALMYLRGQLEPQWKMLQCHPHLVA

CC(COc1ccccc1)N(CCCl)Cc1ccccc1 (stereo not drawn) [PBZ, phenoxybenzamine]
IC50 (HDAC9): 5.3 µM | biological effect in NCI60 screen [1]: essentially no biological effect | expansion of tumor volume in vivo [2]: marked reduction in expansion of tumor volume | Percent cell growth in NCI60 screen with 5% FCS (48 hr incubation) (RPMI 8226): 60% | Percent cell growth in NCI60 screen with 5% FCS (48 hr incubation) (T47D): 60% | Percent cell growth in NCI60 screen with 5% FCS (48 hr incubation) (OVCAR-8): 53% | Percent cell growth in NCI60 screen with 5% FCS (48 hr incubation) (UACC-257): 76% | Percent cell growth in NCI60 screen with 5% FCS (48 hr incubation) (NCI-H522): 73% | Percent cell growth in NCI60 screen with 5% FCS (48 hr incubation) (PC-3): 63% | Percent cell growth in Oncotest screen with 10% FCS (72 hr incubation) (MAXF T47D; 10 μM phenoxybenzamine, T47D): 97% | IC50 (MAXF T47D; Homo sapiens, MAXF T47D Mammary, 1% FCS): 83.4 µM | Test/Control (%) at Drug Concentration [uM] 1,0E+00 (MAXF T47D; MAX T47D, 1% FCS, study P495C): 98% | Test/Control (%) at Drug Concentration [uM] 1,0E+01 (MAXF T47D; MAX T47D, 1% FCS, study P495C): 96% | Test/Control (%) at Drug Concentration [uM] 1,0E+02 (MAXF T47D; MAX T47D, 1% FCS, study P495C): 37% | Test/Control (%) at Drug Concentration [uM] 3,2E+00 (MAXF T47D; MAX T47D, 1% FCS, study P495C): 99% | Test/Control (%) at Drug Concentration [uM] 3,2E+01 (MAXF T47D; MAX T47D, 1% FCS, study P495C): 92% | Test/Control (%) at Drug Concentration [uM] 1,0E+00 (MAXF T47D; MAX T47D, 10% FCS, study P495A): 101% | Test/Control (%) at Drug Concentration [uM] 1,0E+01 (MAXF T47D; MAX T47D, 10% FCS, study P495A): 97% | Test/Control (%) at Drug Concentration [uM] 1,0E+02 (MAXF T47D; MAX T47D, 10% FCS, study P495A): 74% | Test/Control (%) at Drug Concentration [uM] 1,0E-01 (MAXF T47D; MAX T47D, 10% FCS, study P495A): 97% | Test/Control (%) at Drug Concentration [uM] 1,0E-02 (MAXF T47D; MAX T47D, 10% FCS, study P495A): 92% | Test/Control (%) at Drug Concentration [uM] 3,2E+00 (MAXF T47D; MAX T47D, 10% FCS, study P495A): 102% | Test/Control (%) at Drug Concentration [uM] 3,2E+01 (MAXF T47D; MAX T47D, 10% FCS, study P495A): 95% | Test/Control (%) at Drug Concentration [uM] 3,2E-01 (MAXF T47D; MAX T47D, 10% FCS, study P495A): 97% | Test/Control (%) at Drug Concentration [uM] 3,2E-02 (MAXF T47D; MAX T47D, 10% FCS, study P495A): 92% | Test/Control (%) at Drug Concentration [uM] 3,2E-03 (MAXF T47D; MAX T47D, 10% FCS, study P495A): 97% | Test/Control (%) at Drug Concentration [uM] 1,0E+00 (MAXF T47D; MAX T47D, 10% FCS, study P495B): 80% | Test/Control (%) at Drug Concentration [uM] 1,0E+01 (MAXF T47D; MAX T47D, 10% FCS, study P495B): 79% | Test/Control (%) at Drug Concentration [uM] 1,0E+02 (MAXF T47D; MAX T47D, 10% FCS, study P495B): 57% | Test/Control (%) at Drug Concentration [uM] 1,0E-01 (MAXF T47D; MAX T47D, 10% FCS, study P495B): 92% | Test/Control (%) at Drug Concentration [uM] 1,0E-02 (MAXF T47D; MAX T47D, 10% FCS, study P495B): 93% | Test/Control (%) at Drug Concentration [uM] 1,0E-03 (MAXF T47D; MAX T47D, 10% FCS, study P495B): 94% | Test/Control (%) at Drug Concentration [uM] 3,2E+00 (MAXF T47D; MAX T47D, 10% FCS, study P495B): 79% | Test/Control (%) at Drug Concentration [uM] 3,2E+01 (MAXF T47D; MAX T47D, 10% FCS, study P495B): 84% | % inhibition @ 10 uM (HDAC3/NCOR2; HDAC3/NCOR2, 10 µM): ~30% | inhibition at 10 µM (HDAC3/NCOR2; read-out: % inhibition @ 10 uM, HDAC3/NCOR2): 31% | reversing the heightened pain sensitivity of the CFA-affected animals (CFA-affected animals): equipotent with the nonsteroidal anti-inflammatory drug, naproxen | inhibition at 10 µM (HDAC2): 0% | decrease in right-ventricular hypertrophy [3]: 69% | inhibition in the increase in medial thickening of pulmonary arteries [3]: 80% | aqueous solubility [4]: adequate aqueous solubility | IC50 (HDAC6): 0.59 µM | inhibition at 10 µM (HDAC4): 25% | inhibition at 10 µM (HDAC1): 16% | IC50 (HDAC5): 9.8 µM | % inhibition @ 10 uM (HDAC7; HDAC7, 10 µM): ~30% | inhibition at 10 µM (HDAC7; read-out: % inhibition @ 10 uM, HDAC7): 34% | inhibition at 10 µM (HDAC11): 0% | % inhibition @ 10 uM (HDAC8; HDAC8, 10 µM): ~30% | inhibition at 10 µM (HDAC8; read-out: % inhibition @ 10 uM, HDAC8): 34% | inhibition at 10 µM (HDAC10): 0%
